# From patent US7405038B1, “Stable cell lines resistant to apoptosis and nutrient stress and methods of making same” (Boyce Thompson Institute for Plant Research, Inc., priority 2000, dated 2008)
# Numbered stars: 1 amine (or outer) side, 2 acyl side, 3 side chain; on linkers, the order of the positions; unused ones are H or OH. Bridge positions count the residues as written; N and C are the ends. Square brackets hold non-standard residues; d marks the D form. Peptide text beside a SMILES is read from it. I, II: the chains in the order shown. Actinocin(9to1) = Cc1c2oc3c(C)ccc(C(=O)[*:1])c3nc-2c(C(=O)[*:2])c(N)c1=O; NMeV = CN[C@H](C(=O)O)C(C)C; Sar = CNCC(=O)O
# Key:
# Assay type in all cases: cell-based, Spodoptera frugiperda
# [1] = tested on: Sf9P35AcV5-1 cells; test: Resistance to induction of apoptosis by actinomycin D: cell survival
# Procedure: (§1) The cells were examined for resistance to induction of apoptosis by actinomycin D, as well as survival under conditions of nutrient deprivation. Sf9 cells or stably transfected lines Sf9^P35AcV5−1 and Sf9^P35AcV5−3 were incubated in medium containing 0.1 μg/ml actinomycin D for 1 hour, then placed in TNMFH medium.
# (§2) Increasing doses of actinomycin D were tested to further examine the degree of resistance to this inducer of apoptosis. Sf9 or stably transfected cells expressing P35 were incubated in a range of concentrations of actinomycin D (0.01 to 0.5 μg/ml) for one hour, then placed in TNMFH and scored for cell survival after 1-4 days (Table 2).
# [2] = tested on: Sf9 cells; test: as above
# Procedure: as §1, §2
# [3] = tested on: surviving transfected Sf9 cells; test: Actinomycin D selection of G418-selected transfected cells; settings: 0.1 μg/ml actinomycin D for 1 hour, then fresh TNMFH; after three days
# Procedure: In order to select cells expressing higher levels of functional P35, the surviving transfected cells were placed in medium containing 0.1 μg/ml actinomycin D for 1 hour. Another example of an inducer of apoptosis that could be used to select cells resistant to apoptosis is UV irradiation. In mammalian cells, inducers of apoptosis such as tumor necrosis factor (TNF) could also be used. The selection using an inducer of apoptosis could alternatively be performed without cotransfection with a selectable marker such as an antibiotic resistance gene.
# At the end of the one hour incubation in actinomycin D, the medium was replaced with fresh TNMFH medium (containing no actinomycin D) and cells were allowed to grow for three days. After three days, 85-90% of the cells treated with actinomycin D-containing medium died. Medium was replaced after 3 days and surviving single cells formed small colonies which were subsequently propagated and used to clone individual cell lines by limiting dilution. For limiting dilution cloning, cells were diluted into 96 well plates such that each well received only one cell on average. Each well was subsequently monitored to ensure that only a single colony was present. Monoclonal cell lines were selected and propagated. Cell lines expressing the native P35 protein were named Sf9^P35, and lines expressing the epitope tagged P35 protein were named Sf9^P35AcV5. […]
# [4] = 0.075 μg/ml actinomycin D for one hour, Day 3
# [5] = 0.075 μg/ml actinomycin D for one hour, Day 4
# [6] = 0.1 μg/ml actinomycin D for 1 hour, then TNMFH medium, after three days
# [7] = 0.1 μg/ml actinomycin D for one hour, Day 1
# [8] = 0.1 μg/ml actinomycin D for one hour, Day 2
# [9] = 0.1 μg/ml actinomycin D for one hour, Day 3
# [10] = 0.1 μg/ml actinomycin D for one hour, Day 4
# [11] = 0.25 μg/ml actinomycin D for one hour, Day 1
# [12] = 0.25 μg/ml actinomycin D for one hour, Day 2
# [13] = 0.25 μg/ml actinomycin D for one hour, Day 3
# [14] = 0.25 μg/ml actinomycin D for one hour, Day 4
# [15] = 0.5 μg/ml actinomycin D for one hour, Day 1
# [16] = 0.5 μg/ml actinomycin D for one hour, Day 2
# [17] = 0.5 μg/ml actinomycin D for one hour, Day 3
# [18] = 0.5 μg/ml actinomycin D for one hour, Day 4
smiles,measurement,setting,value
"Cc1c2oc3c(C)ccc(C(=O)N[C@@H]4C(=O)N[C@H](C(C)C)C(=O)N5CCC[C@H]5C(=O)N(C)CC(=O)N(C)[C@@H](C(C)C)C(=O)O[C@@H]4C)c3nc-2c(C(=O)N[C@@H]2C(=O)N[C@H](C(C)C)C(=O)N3CCC[C@H]3C(=O)N(C)CC(=O)N(C)[C@@H](C(C)C)C(=O)O[C@@H]2C)c(N)c1=O [Actinomycin D, actinomycin D] (I: T[dV]P[Sar][NMeV] / II: T[dV]P[Sar][NMeV]; ester I:1-I:C, II:1-II:C; linker I:N-II:N via Actinocin(9to1))",Sf9P35AcV5-1 Cell Survival (Percentage),[1]; [4],100 Percentage
same,Sf9P35AcV5-1 Cell Survival (Percentage),[1]; [5],100 Percentage
same,survival of Sf9P35AcV5-1 cells,[1]; [6],survived
same,Sf9P35AcV5-1 Cell Survival (Percentage),[1]; [7],100 Percentage
same,Sf9P35AcV5-1 Cell Survival (Percentage),[1]; [8],100 Percentage
same,Sf9P35AcV5-1 Cell Survival (Percentage),[1]; [9],100 Percentage
same,Sf9P35AcV5-1 Cell Survival (Percentage),[1]; [10],100 Percentage
same,survival of stably transfected line,[1]; 0.25 μg/ml actinomycin D,100%
same,Sf9P35AcV5-1 Cell Survival (Percentage),[1]; [11],100 Percentage
same,Sf9P35AcV5-1 Cell Survival (Percentage),[1]; [12],100 Percentage
same,Sf9P35AcV5-1 Cell Survival (Percentage),[1]; [13],100 Percentage
same,Sf9P35AcV5-1 Cell Survival (Percentage),[1]; [14],100 Percentage
same,survival of stably transfected line,[1]; 0.5 μg/ml actinomycin D,≤ 10%
same,Sf9P35AcV5-1 Cell Survival (Percentage),[1]; [15],8.5 Percentage
same,Sf9P35AcV5-1 Cell Survival (Percentage),[1]; [16],5.7 Percentage
same,Sf9P35AcV5-1 Cell Survival (Percentage),[1]; [17],1.5 Percentage
same,Sf9P35AcV5-1 Cell Survival (Percentage),[1]; [18],0 Percentage
same,resistance to actinomycin D as an inducer of apoptosis,[1]; relative to Sf9 cells,≥ 2 fold
same,Sf9 Cell Survival (Percentage),"[2]; 0.01 μg/ml actinomycin D for one hour, Day 1",100 Percentage
same,Sf9 Cell Survival (Percentage),"[2]; 0.01 μg/ml actinomycin D for one hour, Day 2",100 Percentage
same,Sf9 Cell Survival (Percentage),"[2]; 0.01 μg/ml actinomycin D for one hour, Day 3",100 Percentage
same,Sf9 Cell Survival (Percentage),"[2]; 0.01 μg/ml actinomycin D for one hour, Day 4",100 Percentage
same,Sf9 Cell Survival (Percentage),"[2]; 0.025 μg/ml actinomycin D for one hour, Day 1",100 Percentage
same,Sf9 Cell Survival (Percentage),"[2]; 0.025 μg/ml actinomycin D for one hour, Day 2",100 Percentage
same,Sf9 Cell Survival (Percentage),"[2]; 0.025 μg/ml actinomycin D for one hour, Day 3",100 Percentage
same,Sf9 Cell Survival (Percentage),"[2]; 0.025 μg/ml actinomycin D for one hour, Day 4",100 Percentage
same,Sf9 Cell Survival (Percentage),"[2]; 0.05 μg/ml actinomycin D for one hour, Day 1",100 Percentage
same,Sf9 Cell Survival (Percentage),"[2]; 0.05 μg/ml actinomycin D for one hour, Day 2",100 Percentage
same,Sf9 Cell Survival (Percentage),"[2]; 0.05 μg/ml actinomycin D for one hour, Day 3",100 Percentage
same,Sf9 Cell Survival (Percentage),"[2]; 0.05 μg/ml actinomycin D for one hour, Day 4",100 Percentage
same,survival of Sf9 cells,[2]; 0.075 μg/ml actinomycin D,80-95%
same,Sf9 Cell Survival (Percentage),"[2]; 0.075 μg/ml actinomycin D for one hour, Day 1",95 Percentage
same,Sf9 Cell Survival (Percentage),"[2]; 0.075 μg/ml actinomycin D for one hour, Day 2",90 Percentage
same,Sf9 Cell Survival (Percentage),[2]; [4],83 Percentage
same,Sf9 Cell Survival (Percentage),[2]; [5],83 Percentage
same,survival of Sf9 cells,[2]; 0.1 μg/ml actinomycin D,≤ 5%
same,survival of Sf9 cells,[2]; [6],all Sf9 cells died
same,Sf9 Cell Survival (Percentage),[2]; [7],13.7 Percentage
same,Sf9 Cell Survival (Percentage),[2]; [8],8.6 Percentage
same,Sf9 Cell Survival (Percentage),[2]; [9],3.7 Percentage
same,Sf9 Cell Survival (Percentage),[2]; [10],0 Percentage
same,Sf9 Cell Survival (Percentage),[2]; [11],4.5 Percentage
same,Sf9 Cell Survival (Percentage),[2]; [12],3.6 Percentage
same,Sf9 Cell Survival (Percentage),[2]; [13],0 Percentage
same,Sf9 Cell Survival (Percentage),[2]; [14],0 Percentage
same,Sf9 Cell Survival (Percentage),[2]; [15],0 Percentage
same,Sf9 Cell Survival (Percentage),[2]; [16],0 Percentage
same,Sf9 Cell Survival (Percentage),[2]; [17],0 Percentage
same,Sf9 Cell Survival (Percentage),[2]; [18],0 Percentage
same,cells treated with actinomycin D-containing medium that died,[3],85-90%
